Tests used:
RXRβ [1] = biological target: T1, RXRβ (UniProt P28704); experiment: holoreceptor transactivation assay; assay type: cell-based; conditions: for EC50: NA = Not Active, read-out: RXR Trans. EC50 (nM) β; for % efficacy, RXR Trans. β: relative to 10^−6 M AGN 194204
T1 sequence (P28704 1-520): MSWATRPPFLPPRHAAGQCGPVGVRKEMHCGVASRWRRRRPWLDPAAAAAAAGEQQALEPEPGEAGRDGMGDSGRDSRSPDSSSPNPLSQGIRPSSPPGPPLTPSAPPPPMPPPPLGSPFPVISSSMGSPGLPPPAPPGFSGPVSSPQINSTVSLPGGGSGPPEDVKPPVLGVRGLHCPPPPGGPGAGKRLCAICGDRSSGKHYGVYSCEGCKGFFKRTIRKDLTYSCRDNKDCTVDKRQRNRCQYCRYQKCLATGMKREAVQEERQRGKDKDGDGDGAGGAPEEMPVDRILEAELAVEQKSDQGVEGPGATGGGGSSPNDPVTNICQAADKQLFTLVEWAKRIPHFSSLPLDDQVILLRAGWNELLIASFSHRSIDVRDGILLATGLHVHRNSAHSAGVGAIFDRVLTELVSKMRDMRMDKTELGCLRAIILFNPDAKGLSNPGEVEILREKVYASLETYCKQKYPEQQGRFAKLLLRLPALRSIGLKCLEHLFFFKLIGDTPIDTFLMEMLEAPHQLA
Source text: (§1) The results obtained in this assay are expressed in EC50 numbers, as they are also in the chimeric receptor transactivation assay. The results of ligand binding assay are expressed in Kd numbers.
(§2) Particularly, the transactivation data pertaining to RAR receptors were obtained in the chimeric assay, and the data pertaining to transactivation of RXR receptors were obtained in the holoreceptor transactivation assay.

RXRβ [2] = biological target: T1, RXRβ; experiment: ligand binding assay; conditions: read-out: RXR Bind Ki (nM) β
Source text: as §1, §2

RARβ = biological target: T2, RARβ (Homo sapiens, UniProt P10826); experiment: ligand binding assay; conditions: read-out: RAR Bind. Ki (nM) β
T2 sequence (P10826 1-455): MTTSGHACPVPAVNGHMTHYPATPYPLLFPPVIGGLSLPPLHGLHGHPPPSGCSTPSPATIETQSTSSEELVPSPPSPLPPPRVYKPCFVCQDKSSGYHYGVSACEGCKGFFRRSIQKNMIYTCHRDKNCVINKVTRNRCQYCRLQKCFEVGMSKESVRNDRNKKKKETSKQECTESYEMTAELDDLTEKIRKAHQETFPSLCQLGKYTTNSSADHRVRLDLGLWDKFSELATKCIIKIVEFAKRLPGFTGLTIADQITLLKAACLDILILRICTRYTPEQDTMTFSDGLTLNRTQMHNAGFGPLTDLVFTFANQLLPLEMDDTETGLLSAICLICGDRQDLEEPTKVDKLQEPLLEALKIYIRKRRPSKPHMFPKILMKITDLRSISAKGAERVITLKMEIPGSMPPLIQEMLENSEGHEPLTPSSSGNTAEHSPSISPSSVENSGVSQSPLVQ
Source text: as §1, §2

RXRγ [3] = biological target: T3, RXRγ (UniProt P28705); experiment: holoreceptor transactivation assay; assay type: cell-based; conditions: for EC50: NA = Not Active, read-out: RXR Trans. EC50 (nM) Y; for % efficacy, RXR Trans. Y: relative to 10^−6 M AGN 194204
T3 sequence (P28705 1-463): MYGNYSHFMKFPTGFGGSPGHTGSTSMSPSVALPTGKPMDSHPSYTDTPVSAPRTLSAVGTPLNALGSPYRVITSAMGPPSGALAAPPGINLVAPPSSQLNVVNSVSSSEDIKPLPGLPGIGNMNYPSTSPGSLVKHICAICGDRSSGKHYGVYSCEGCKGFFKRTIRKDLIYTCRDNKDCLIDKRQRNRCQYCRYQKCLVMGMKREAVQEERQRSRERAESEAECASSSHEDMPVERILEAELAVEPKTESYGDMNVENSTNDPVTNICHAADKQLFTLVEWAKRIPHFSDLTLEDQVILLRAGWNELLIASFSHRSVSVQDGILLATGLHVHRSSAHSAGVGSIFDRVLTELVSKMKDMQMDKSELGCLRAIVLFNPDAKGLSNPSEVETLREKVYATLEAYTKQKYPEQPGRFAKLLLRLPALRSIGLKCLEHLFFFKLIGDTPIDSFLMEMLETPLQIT
Source text: as §1, §2

RXRγ [4] = biological target: T3, RXRγ; experiment: ligand binding assay; conditions: read-out: RXR Bind Ki (nM) Y
RXRα [5] = biological target: T4, RXRα (Homo sapiens, UniProt P19793); experiment: ligand binding assay
T4 sequence (P19793 1-462): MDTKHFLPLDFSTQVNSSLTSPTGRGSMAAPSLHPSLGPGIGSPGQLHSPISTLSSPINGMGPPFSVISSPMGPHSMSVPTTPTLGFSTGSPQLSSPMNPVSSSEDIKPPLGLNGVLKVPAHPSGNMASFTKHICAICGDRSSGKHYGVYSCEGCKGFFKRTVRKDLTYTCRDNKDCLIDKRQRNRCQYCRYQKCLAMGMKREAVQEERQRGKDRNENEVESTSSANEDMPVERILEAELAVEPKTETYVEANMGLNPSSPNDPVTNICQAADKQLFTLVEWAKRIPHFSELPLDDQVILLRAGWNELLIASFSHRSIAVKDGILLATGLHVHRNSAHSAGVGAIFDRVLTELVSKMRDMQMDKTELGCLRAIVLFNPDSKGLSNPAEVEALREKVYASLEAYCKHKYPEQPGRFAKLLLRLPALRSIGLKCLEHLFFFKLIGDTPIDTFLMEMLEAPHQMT
Source text: as §1, §2

RARγ = biological target: T5, RARγ (Homo sapiens, UniProt P13631); experiment: ligand binding assay; conditions: read-out: RAR Bind. Ki (nM) Y
T5 sequence (P13631 1-454): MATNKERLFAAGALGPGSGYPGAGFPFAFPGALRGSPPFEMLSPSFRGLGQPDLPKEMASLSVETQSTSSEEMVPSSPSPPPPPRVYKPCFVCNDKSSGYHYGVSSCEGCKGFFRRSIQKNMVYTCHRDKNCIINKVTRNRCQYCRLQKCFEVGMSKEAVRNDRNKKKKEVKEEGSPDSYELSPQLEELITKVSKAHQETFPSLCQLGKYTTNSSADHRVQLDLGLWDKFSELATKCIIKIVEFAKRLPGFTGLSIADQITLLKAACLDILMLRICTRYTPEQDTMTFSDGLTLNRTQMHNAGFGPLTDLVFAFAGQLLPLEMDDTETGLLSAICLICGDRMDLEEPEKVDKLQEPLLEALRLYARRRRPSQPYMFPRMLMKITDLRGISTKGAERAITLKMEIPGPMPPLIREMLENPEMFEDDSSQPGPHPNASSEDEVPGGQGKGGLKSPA
Source text: as §1, §2

RXRα [6] = biological target: T4, RXRα; experiment: holoreceptor transactivation assay; conditions: for Emax: read-out: % efficacy, RXR Trans. α
Source text: as §1, §2

Compound | % efficacy, RXR Trans. β (RXRβ [1]) | Ki (RXRβ [2]) [nM] | Ki (RARβ) [nM] | EC50 (RXRγ [3]) [nM] | % efficacy, RXR Trans. Y (RXRγ [3]) | Ki (RXRγ [4]) [nM] | Ki (RXRα [5]) [nM] | Ki (RARγ) [nM] | EC50 (RXRα [6]) [nM] | Emax (RXRα [6]) [%] | EC50 (RXRβ [1]) [nM]
CCN(c1ccc(C(=O)O)cc1)c1cc2c(cc1OCc1cc(C(C)(C)C)cc(C(C)(C)C)c1)C(C)(C)CC=C2C(C)C [Compound 156, 4-{[3-(3,5-di-t-butylbenzyloxy)-8-isopropyl-5,5-dimethyl-5,6-dihydronaphthalen-2-yl]ethylamino}benzoic acid] |  | > 1000 | 1500 |  |  | > 1000 | 804 | 4200 |  |  | 
CCN(c1ccc(C(=O)O)cc1)c1cc2c(cc1OCc1ccccc1)C(C)(C)CC=C2C(C)(C)C [Compound 158] |  | 3 | 374 |  |  | 161 | 4 | 881 |  |  | 
CCCCOc1cc2c(cc1N(CC)c1ccc(C(=O)O)cc1)C(C(C)C)=CCC2(C)C [Compound 152, 4-[(3-n-Butoxy-8-isopropyl-5,5-dimethyl-5,6-dihydronaphthalen-2-yl)ethylamino]benzoic acid] |  | 136 | 2300 |  |  | 437 | 29 |  |  |  | 
CCN(c1ccc(C(=O)O)cc1)c1cc2c(cc1C)C(C(C)C)=CCC2(C)C [Compound 53, 4-[Ethyl-(5-isopropyl-3,8,8-trimethyl-7,8-dihydronaphthalen-2-yl)amino]benzoic acid] | (20) % | > 1000 | > 10000 |  | (75) % |  | 1200 | > 10000 |  | 65 | > 1000
CCC1=CCC(C)(C)c2cc(C)c(N(CC)c3ccc(C(=O)O)cc3)cc21 [Compound 24, 4-[Ethyl(8-ethyl-3,5,5-trimethyl-5,6-dihydronaphthalen-2-yl)amino]benzoic acid] | (96) % | 66 | 9100 | 2 | (102) % |  | 29 | 13000 | 1 | 100 | 10
CC1=CCC(C)(C)c2cc(N(C)c3ccc(C(=O)O)cc3)ccc21 [Compound 67, 4-[Methyl-(5,8,8-trimethyl-7,8-dihydro-naphthalen-2-yl)-amino]-benzoic acid] |  | > 1000 | > 10000 |  |  | 1300 | 666 |  |  |  | 
CCN(c1ccc(C(=O)O)cc1)c1cc2c(cc1OCc1ccccc1)C(C)(C)CC=C2C(C)C [Compound 154, 4-[(3-Benzyloxy-8-isopropyl-5,5-dimethyl-5,6-dihydronaphthalen-2-yl)ethylamino]benzoic acid] |  | 19 | 1800 |  |  | 41 | 3 | 6200 |  |  | 

Continued, in another order:

% efficacy, RXR Trans. β (RXRβ [1]) | Ki (RXRβ [2]) [nM] | Ki (RARβ) [nM] | EC50 (RXRγ [3]) [nM] | % efficacy, RXR Trans. Y (RXRγ [3]) | Ki (RXRγ [4]) [nM] | Ki (RXRα [5]) [nM] | Ki (RARγ) [nM] | EC50 (RXRα [6]) [nM] | Emax (RXRα [6]) [%] | Compound | EC50 (RXRβ [1]) [nM]
(100) % | 12 | > 10000 | 5 | (120) % | 21 | 3 | 3500 | 4 | 114 | CCN(c1ccc(C(=O)O)cc1)c1ccc2c(c1)C(C(C)(C)C)=CCC2(C)C [Compound 88] | 41
 | 155 | 1200 |  |  | 248 | 54 | > 10000 |  |  | CCN(c1ccc(C(=O)O)cc1)c1cc2c(cc1OC(C)C)C(C)(C)CC=C2C(C)C [Compound 151, 4-[Ethyl-(3-isopropoxy-5,5-dimethyl-8-isopropyl-5,6-dihydronaphthalen-2-yl)amino]benzoic acid] | 
 | > 1000 | > 10000 | > 1000 | (15) % | > 1000 | > 1000 | > 10000 | > 1000 | 30 | CC1=CCC(C)(C)c2cc(N(C)c3ccc(C(=O)O)cc3)c(C)cc21 [Compound 44, 4-[Methyl(3,5,8,8-tetramethyl-7,8-dihydronaphthalen-2-yl)amino]benzoic acid] | 
 | 334 | 1400 |  |  | 398 | 3 | 2900 |  |  | CCN(c1ccc(C(=O)O)cc1)c1cc2c(cc1OCc1ccc(C)cc1)C(C)(C)CC=C2C(C)C [Compound 155, 4-{Ethyl-[8-isopropyl-5,5-dimethyl-3-(4-methylbenzyloxy)-5,6-dihydronaphthalen-2-yl]amino}benzoic acid] | 
 | > 1000 | > 10000 | > 1000 | (25) % | > 1000 | > 1000 | > 10000 |  | 50 | CCN(c1ccc(C(=O)O)cc1)c1cc2c(cc1C)C(C)=CCC2(C)C [Compound 45, 4-[Ethyl(3,5,8,8-tetramethyl-7,8-dihydronaphthalen-2-yl)amino]benzoic acid] | 
 | 208 | 3800 |  |  | 352 | 61 | 7900 |  |  | CCCOc1cc2c(cc1N(CC)c1ccc(C(=O)O)cc1)C(C(C)C)=CCC2(C)C [Compound 150, 4-[Ethyl-(8-isopropyl-5,5-dimethyl-3-n-propoxy-5,6-dihydronaphthalen-2-yl)amino]benzoic acid] | 
(60) % | 426 | > 10000 | 182 | (124) % | 101 | 64 |  | 72 | 88 | CCN(c1ccc(C(=O)O)cc1)c1cc2c(cc1C)C(C(C)(C)C)=CCC2(C)C [Compound 60, 4-[Ethyl-(5-t-butyl-3,8,8-trimethyl-7,8-dihydronaphthalen-2-yl)amino]benzoic acid] | 
(93) % | 34 | > 10000 | 1 | 105) % | 8 | 7 |  | 1 | 108 | CCCN(c1ccc(C(=O)O)cc1)c1ccc2c(c1)C(C(C)(C)C)=CCC2(C)C [Compound 89] | 8
